Columns and labels:
[1] = CC50 assay (CellTiter-Glo) in Huh-7 HCV replicon cells; type: cell-based; conditions: human
Summary of the method: (§1)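 Huh-7 cells carrying HCV replicon (6000/well) incubated with serially diluted compound, 0.5% DMSO final, 3 days at 37° C, 5% CO2. EC50 from luciferase luminescence after 30 min lysis/substrate at room temperature; CC50 from CellTiter-Glo luminescence after 10 min at room temperature.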

[2] = system: HCV replicon in human hepatoma Huh-7 cell line; experiment: Anti-HCV replicon assay, EC50 (luciferase luminescence); type: cell-based; conditions: Hepatitis C virus, Huh-7, 72 h
Summary of the method: as §1

SMILES: CCOc1ccc(-c2ccc3nc(NCc4ccc(-n5cncn5)cc4)nc(NCC(F)(F)F)c3n2)cc1S(C)(=O)=O [Example 183, N^2-(4-(1H-1,2,4-triazol-1-yl)benzyl)-6-(4-ethoxy-3-(methylsulfonyl)phenyl)-N^4-(2,2,2-trifluoroethyl)pyrido [3,2-d]pyrimidine-2,4-diamine]
- CC50 at 3 days ([1]; Table 2, 3 days incubation): 1 to 10 µM
- EC50 [2]: < 0.1 µM

SMILES: CS(=O)(=O)c1cc(-c2ccc3nc(NCc4ccc(-n5cncn5)cc4)nc(OC4CC4)c3n2)ccc1OC(F)F [Example 192, N-(4-(1H-1,2,4-triazol-1-yl)benzyl)-4-cyclopropoxy-6-(4-(difluoromethoxy)-3-(methylsulfonyl)phenyl)pyrido [3,2-d]pyrimidin-2-amine]
- CC50 at 3 days ([1]; Table 2, 3 days incubation): 1 to 10 µM
- EC50 [2]: < 0.1 µM

SMILES: COc1ccc(-c2ccc3nc(NCc4cccc(S(C)(=O)=O)c4)nc(NCC(F)(F)F)c3n2)cc1S(C)(=O)=O [Example 177, N^2-(3-(methylsulfonyl)benzyl)-6-(4-methoxy-3-(methylsulfonyl)phenyl)-N^4-(2,2,2-trifluoroethyl) pyrido[3,2-d]pyrimidine-2,4-diamine]
- CC50 at 3 days ([1]; Table 2, 3 days incubation): 1 to 10 µM
- EC50 [2]: < 0.1 µM

SMILES: Cc1cc(S(N)(=O)=O)ccc1CNc1nc(NCC(F)(F)F)c2nc(-c3ccc(F)cc3)ccc2n1 [Example 4, 4-{[6-(4-Fluoro-phenyl)-4-(2,2,2-trifluoro-ethylamino)-pyrido[3,2-d]pyrimidin-2-ylamino]-methyl}-3-methyl-benzenesulfonamide]
- CC50 at 3 days ([1]; Table 1, 3 days incubation): > 25 µM
- EC50 [2]: 0.25 to 2 µM

SMILES: C[C@@H](Nc1nc(OC2(C)CC2)c2nc(C#CC3CC3)ccc2n1)c1ccc(S(N)(=O)=O)cc1 [Example 296, (R)-4-(1-(6-(2-cyclopropyl-ethynyl)-4-(1-methylcyclo-propoxy)pyrido[3,2-d]pyrimidin-2-ylamino)ethyl)benzene-sulfonamide]
- CC50 at 3 days ([1]; Table 2, 3 days incubation): > 10 µM
- EC50 [2]: < 0.1 µM

SMILES: C[C@@H](Nc1nc(NC2(C(F)(F)F)CC2)c2nc(-c3cccc(S(C)(=O)=O)c3)ccc2n1)c1ccc(-n2cncn2)cc1 [Example 47, N^2-((R)-1-(4-(1H-1,2,4-triazol-1-yl)phenyl)ethyl)-6-(3-(methylsulfonyl)phenyl)-N^4-(1-(trifluoromethyl)cyclopropyl) pyrido[3,2-d]pyrimidine-2,4-diamine]
- CC50 at 3 days ([1]; Table 2, 3 days incubation): 1 to 10 µM
- EC50 [2]: < 0.1 µM

SMILES: Cc1cc(S(N)(=O)=O)ccc1[C@H](C)Nc1nc(NC2(C(F)(F)F)CC2)c2nc(-c3ccc(F)cc3)ccc2n1 [Example 108, (S)-4-(1-(6-(4-fluorophenyl)-4-(1-(trifluoromethyl)cyclopropyl-amino)pyrido[3,2-d]pyrimidin-2-ylamino)ethyl)-3-methylbenzene-sulfonamide]
- CC50 at 3 days ([1]; Table 2, 3 days incubation): > 10 µM
- EC50 [2]: 0.25 to 2 µM

SMILES: C[C@@H](Nc1nc(NCC(F)(F)F)c2nc(C#CC3CC3)ccc2n1)c1ccc(S(N)(=O)=O)cc1 [Example 275, (R)-4-(1-(6-(2-cyclopropyl-ethynyl)-4-(2,2,2-trifluoro-ethylamino)pyrido[3,2-d]pyrimidin-2-ylamino)ethyl) benzenesulfonamide]
- CC50 at 3 days ([1]; Table 2, 3 days incubation): > 10 µM
- EC50 [2]: < 0.1 µM

SMILES: NS(=O)(=O)c1cc(Cl)cc(CNc2nc(NC3(C(F)(F)F)CC3)c3nc(-c4ccc(F)cc4)ccc3n2)c1 [Example 27, 3-chloro-5-{[6-(4-fluorophenyl)-4-(1-trifluoromethyl-cyclopropylamino)-pyrido[3,2-d]pyrimidin-2-ylamino]-methyl}-benzenesulfonamide]
- CC50 at 3 days ([1]; Table 2, 3 days incubation): > 10 µM
- EC50 [2]: 0.1 to 0.25 µM

SMILES: CN1CCN(c2ccc(-c3ccc4nc(NCc5cccc(S(C)(=O)=O)c5)nc(NC5(C(F)(F)F)CC5)c4n3)cc2)C1=O [Example 50, 1-(4-(2-(3-(methylsulfonyl)benzylamino)-4-(1-(trifluoromethyl)cyclopropylamino)pyrido[3,2-d]pyrimidin-6-yl)phenyl)-3-methylimidazolidin-2-one]
- CC50 at 3 days ([1]; Table 2, 3 days incubation): 1 to 10 µM
- EC50 [2]: < 0.1 µM

SMILES: CS(=O)(=O)c1cc(-c2ccc3nc(NCc4cc(F)cc(S(N)(=O)=O)c4)nc(NC4(C(F)(F)F)CC4)c3n2)ccc1Cl [Example 36, 3-((6-(4-chloro-3-(methylsulfonyl)phenyl)-4-(1-(trifluoromethyl)cyclopropyl-amino)pyrido[3,2-d]pyrimidin-2-ylamino)methyl)-5-fluorobenzenesulfonamide]
- CC50 at 3 days ([1]; Table 2, 3 days incubation): 1 to 10 µM
- EC50 [2]: < 0.1 µM

SMILES: C[C@@H](Nc1nc(OC2CC2)c2nc(-c3ccc(OC(F)F)c(S(C)(=O)=O)c3)ccc2n1)c1ccc(S(N)(=O)=O)cc1 [Example 185, 4-((R)-1-(4-cyclopropoxy-6-(4-(difluoromethoxy)-3-(methylsulfonyl)phenyl)pyrido [3,2-d]pyrimidin-2-ylamino)ethyl)benzenesulfonamide]
- CC50 at 3 days ([1]; Table 2, 3 days incubation): > 10 µM
- EC50 [2]: 0.1 to 0.25 µM

SMILES: COCCNc1nc(NCC(F)(F)F)c2nc(-c3cccc(S(C)(=O)=O)c3)ccc2n1 [Example 139, N^2-(2-methoxyethyl)-6-(3-(methylsulfonyl)phenyl)-N^4-(2,2,2-trifluoroethyl)pyrido [3,2-d]pyrimidine-2,4-diamine]
- CC50 at 3 days ([1]; Table 2, 3 days incubation): > 10 µM
- EC50 [2]: < 0.1 µM

SMILES: NS(=O)(=O)c1cc(CNc2nc(NC3(C(F)(F)F)CC3)c3nc(-c4ccc(F)cc4)ccc3n2)ccc1C(F)(F)F [Example 118, 5-((6-(4-fluorophenyl)-4-(1-(trifluoromethyl)cyclopropyl-amino)pyrido[3,2-d]pyrimidin-2-ylamino)methyl)-2-(trifluoro-methyl)benzenesulfonamide]
- CC50 at 3 days ([1]; Table 2, 3 days incubation): > 10 µM
- EC50 [2]: 0.25 to 2 µM

SMILES: COc1ccc(-c2ccc3nc(NCc4ccc(S(N)(=O)=O)cc4)nc(NCC(F)(F)F)c3n2)cc1S(=O)(=O)C1CC1 [Example 157, 4-((6-(3-(cyclopropylsulfonyl)-4-methoxyphenyl)-4-(2,2,2-trifluoroethylamino)pyrido [3,2-d]pyrimidin-2-ylamino)methyl)benzenesulfonamide]
- CC50 at 3 days ([1]; Table 2, 3 days incubation): > 10 µM
- EC50 [2]: < 0.1 µM

SMILES: C#Cc1ccc2nc(N[C@H](C)c3ccc(S(N)(=O)=O)cc3)nc(OC3CCC3)c2n1 [Example 307, (R)-4-(1-(4-cyclobutoxy-6-ethynylpyrido[3,2-d]pyrimidin-2-ylamino)ethyl)benzene-sulfonamide]
- CC50 at 3 days ([1]; Table 2, 3 days incubation): 1 to 10 µM
- EC50 [2]: 0.25 to 2 µM

SMILES: CCOc1ccc(-c2ccc3nc(NCc4ccc(-n5cncn5)cc4)nc(NCC(F)(F)F)c3n2)cn1 [Example 229, N^2-(4-(1H-1,2,4-triazol-1-yl)benzyl)-6-(6-ethoxypyridin-3-yl)-N^4-(2,2,2-trifluoroethyl) pyrido[3,2-d]pyrimidine-2,4-diamine]
- CC50 at 3 days ([1]; Table 2, 3 days incubation): > 10 µM
- EC50 [2]: < 0.1 µM

SMILES: FC(F)(F)CNc1nc(NCc2ccc(-n3cncn3)cc2)nc2ccc(-c3ccc(OC4CCC4)nc3)nc12 [Example 250, N^2-(4-(1H-1,2,4-triazol-1-yl)benzyl)-6-(6-cyclobutoxy-pyridin-3-yl)-N^4-(2,2,2-trifluoroethyl)pyrido[3,2-d] pyrimidine-2,4-diamine]
- CC50 at 3 days ([1]; Table 2, 3 days incubation): 1 to 10 µM
- EC50 [2]: < 0.1 µM

SMILES: CCOc1ccc(-c2ccc3nc(N[C@H]4CCN(C(=O)[C@H](NC(=O)OC)C(C)C)C4)nc(NCC(F)(F)F)c3n2)cc1S(N)(=O)=O [Example 266, methyl (R)-1-((S)-3-(6-(4-ethoxy-3-(aminosulfonyl)phenyl)-4-(2,2,2-trifluoroethylamino)pyrido[3,2-d]pyrimidin-2-ylamino)pyrrolidin-1-yl)-3-methyl-1-oxobutan-2-ylcarbamate]
- CC50 at 3 days ([1]; Table 2, 3 days incubation): 1 to 10 µM
- EC50 [2]: < 0.1 µM

SMILES: Fc1ccc(-c2ccc3nc(NCc4cc(F)cc(-n5cncn5)c4)nc(NC4(C(F)(F)F)CC4)c3n2)cc1 [Example 128, N^2-(3-fluoro-5-(1H-1,2,4-triazol-1-yl)benzyl)-6-(4-fluorophenyl)-N^4-(1-(trifluoromethyl)cyclopropyl) pyrido[3,2-d]pyrimidine-2,4-diamine]
- CC50 at 3 days ([1]; Table 2, 3 days incubation): > 10 µM
- EC50 [2]: 0.25 to 2 µM

SMILES: CCOc1ccc(-c2ccc3nc(NCc4ccc(-n5cncn5)cc4)nc(OC4(C)CC4)c3n2)cc1S(N)(=O)=O [Example 263, 5-(2-(4-(1H-1,2,4-triazol-1-yl)benzylamino)-4-(1-methylcyclopropoxy)pyrido [3,2-d)pyrimidin-6-yl)-2-ethoxybenzenesulfonamide]
- CC50 at 3 days ([1]; Table 2, 3 days incubation): 1 to 10 µM
- EC50 [2]: < 0.1 µM

SMILES: Fc1cc(-c2ccc3nc(NCc4ccc(-n5cncn5)cc4)nc(NC4(C(F)(F)F)CC4)c3n2)cnc1NC1CC1 [Example 65, N^2-(4-(1H-1,2,4-triazol-1-yl)benzyl)-6-(6-(cyclopropylamino)-5-fluoropyridin-3-yl)-N^4-(1-(trifluoromethyl)cyclopropyl) pyrido[3,2-d]pyrimidine-2,4-diamine]
- CC50 at 3 days ([1]; Table 2, 3 days incubation): 1 to 10 µM
- EC50 [2]: < 0.1 µM

SMILES: NS(=O)(=O)c1cc(Cl)cc(CNc2nc(NC3(C(F)(F)F)CC3)c3nc(-c4ccc(C(=O)NC5(C(F)(F)F)CC5)cc4)ccc3n2)c1 [Example 95, 3-chloro-5-((6-(4-(1-(trifluoromethyl)cyclopropyl-aminocarbonyl)phenyl)-4-(1-(trifluoromethyl)cyclopropyl-amino)pyrido[3,2-d]pyrimidin-2-ylamino)methyl)benzene-sulfonamide]
- CC50 at 3 days ([1]; Table 2, 3 days incubation): 1 to 10 µM
- EC50 [2]: < 0.1 µM

SMILES: C[C@@H](Nc1nc(NC2(C(F)(F)F)CC2)c2nc(-c3ccc(N)nc3)ccc2n1)c1ccc(-n2cncn2)cc1 [Example 84, N^2-((R)-1-(4-(1H-1,2,4-triazol-1-yl)phenyl)ethyl)-6-(6-aminopyridin-3-yl)-N^4-(1-(trifluoromethyl)cyclopropyl) pyrido[3,2-d]pyrimidine-2,4-diamine]
- CC50 at 3 days ([1]; Table 2, 3 days incubation): 1 to 10 µM
- EC50 [2]: < 0.1 µM

SMILES: COc1ccc(-c2ccc3nc(NCc4ccc(F)c(F)c4)nc(NCC(F)(F)F)c3n2)cc1S(C)(=O)=O [Example 161, N^2-(3,4-difluorobenzyl)-6-(4-methoxy-3-(methylsulfonyl)phenyl)-N^4-(2,2,2-trifluoroethyl) pyrido[3,2-d]pyrimidine-2,4-diamine]
- CC50 at 3 days ([1]; Table 2, 3 days incubation): > 10 µM
- EC50 [2]: < 0.1 µM

From patent publication US8536187B2 (Gilead Sciences, Inc., priority 2008, dated 2013)
